Experiments:
Type in all cases: in vivo
[1] = tested on: giant foxtail (Setaria faberii); assay: Test A preemergence; settings: Setaria faberi, pre-emergence, 240 h; for pest or weed control at 125 g/ha: 125 g ai/ha, Preemergence, visual injury rating after approximately 10 d, read-out: Foxtail, Giant plant response rating (0 to 100 scale, 0 is no effect, 100 is complete control); for pest or weed control at 500 g/ha: 500 g ai/ha, preemergence, visual injury rating about 10 d after treatment, 0 to 100 scale (0 no effect, 100 complete control), read-out: Foxtail, Giant plant response rating
Procedure, shortened: (§1)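 Greenhouse, ~10 d after spray; visual injury vs untreated controls, 0 = no effect, 100 = complete control. Preemergence: directed soil spray over planted seeds. Postemergence: plants 2–10 cm, 1–2 leaf stage. Loam/sand blend. Compound in non-phytotoxic solvent with surfactant.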

[2] = tested on: pigweed (Amaranthus retroflexus); assay: Test A preemergence; settings: Amaranthus retroflexus, pre-emergence, 240 h; for pest or weed control at 125 g/ha: 125 g ai/ha, Preemergence, visual injury rating after approximately 10 d, read-out: Pigweed plant response rating (0 to 100 scale, 0 is no effect, 100 is complete control); for pest or weed control at 500 g/ha: 500 g ai/ha, preemergence, visual injury rating about 10 d after treatment, 0 to 100 scale (0 no effect, 100 complete control), read-out: Pigweed plant response rating
[3] = tested on: ryegrass, Italian (Italian ryegrass, Lolium multiflorum); assay: Test A preemergence; settings: Lolium multiflorum, pre-emergence, 240 h; for pest or weed control at 125 g/ha: 125 g ai/ha, Preemergence, visual injury rating after approximately 10 d, read-out: Ryegrass, Italian plant response rating (0 to 100 scale, 0 is no effect, 100 is complete control); for pest or weed control at 500 g/ha: 500 g ai/ha, preemergence, visual injury rating about 10 d after treatment, 0 to 100 scale (0 no effect, 100 complete control), read-out: Ryegrass, Italian plant response rating
Procedure, shortened: as §1

[4] = tested on: barnyardgrass (Echinochloa crus-galli); assay: Test A preemergence; settings: Echinochloa crus-galli, pre-emergence, 240 h; for pest or weed control at 125 g/ha: 125 g ai/ha, Preemergence, visual injury rating after approximately 10 d, read-out: Barnyardgrass plant response rating (0 to 100 scale, 0 is no effect, 100 is complete control); for pest or weed control at 500 g/ha: 500 g ai/ha, preemergence, visual injury rating about 10 d after treatment, 0 to 100 scale (0 no effect, 100 complete control), read-out: Barnyardgrass plant response rating
Procedure, shortened: as §1

[5] = tested on: Kochia (Kochia scoparia); assay: Test A preemergence; settings: Bassia scoparia, pre-emergence, 240 h; for pest or weed control at 125 g/ha: 125 g ai/ha, Preemergence, visual injury rating after approximately 10 d, read-out: Kochia plant response rating (0 to 100 scale, 0 is no effect, 100 is complete control); for pest or weed control at 500 g/ha: 500 g ai/ha, preemergence, visual injury rating about 10 d after treatment, 0 to 100 scale (0 no effect, 100 complete control), read-out: Kochia plant response rating
Procedure, shortened: as §1

[6] = tested on: ragweed (common ragweed, Ambrosia elatior); assay: Test A preemergence; settings: Ambrosia artemisiifolia, pre-emergence, 240 h; for pest or weed control at 125 g/ha: 125 g ai/ha, Preemergence, visual injury rating after approximately 10 d, read-out: Ragweed plant response rating (0 to 100 scale, 0 is no effect, 100 is complete control); for pest or weed control at 500 g/ha: 500 g ai/ha, preemergence, visual injury rating about 10 d after treatment, 0 to 100 scale (0 no effect, 100 complete control), read-out: Ragweed plant response rating
Procedure, shortened: as §1

[7] = tested on: sedge, umbrella (small-flower umbrella sedge, Cyperus difformis); assay: Test B flooded paddy test; settings: Cyperus difformis, 250 g ai/ha, Flood; 0 to 100 scale where 0 is no effect and 100 is complete control; read-out: Sedge, Umbrella plant response rating
Procedure, shortened: (§2)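 Evaluation by eye, against controls, occurred 13–15 d post-treatment in a greenhouse, using a 0 (no effect) to 100 (complete control) scale. Application was into the paddy water, 3 cm deep over the soil, on 2-leaf plants.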

[8] = tested on: rice (Oryra sativa); assay: Test B flooded paddy test; settings: Oryza sativa, 250 g ai/ha, Flood; 0 to 100 scale where 0 is no effect and 100 is complete control; read-out: Rice plant response rating
Procedure, shortened: as §2

[9] = tested on: barnyardgrass (Echinochloa crus-galli); assay: Test B flooded paddy test; settings: Echinochloa crus-galli, 250 g ai/ha, Flood; 0 to 100 scale where 0 is no effect and 100 is complete control; read-out: Barnyardgrass plant response rating
Procedure, shortened: as §2

[10] = tested on: ducksalad (Heteranthera limosa); assay: Test B flooded paddy test; settings: Heteranthera limosa, 250 g ai/ha, Flood; 0 to 100 scale where 0 is no effect and 100 is complete control; read-out: Ducksalad plant response rating
Procedure, shortened: as §2

[11] = tested on: wheat (Triticum aestivum); assay: Test A postemergence; settings: Triticum aestivum, post-emergence, 240 h, postemergence, approx. 10 d; for plant injury at 125 g/ha: 125 g ai/ha, visual injury on 0 to 100 scale (0 no effect, 100 complete control), read-out: Wheat plant response rating; for plant injury at 500 g/ha: 500 g ai/ha, visual injury, 0 to 100 scale (0 no effect, 100 complete control), read-out: Plant response rating, Wheat
Procedure, shortened: as §1

[12] = tested on: Galium (catchweed bedstraw, Galium aparine); assay: Test A postemergence; settings: Galium, post-emergence, 240 h, postemergence, approx. 10 d; for pest or weed control at 125 g/ha: 125 g ai/ha, visual injury on 0 to 100 scale (0 no effect, 100 complete control), read-out: Galium plant response rating; for pest or weed control at 500 g/ha: 500 g ai/ha, visual injury, 0 to 100 scale (0 no effect, 100 complete control), read-out: Plant response rating, Galium
Procedure, shortened: as §1

[13] = tested on: ryegrass, Italian (Italian ryegrass, Lolium multiflorum); assay: Test A postemergence; settings: Lolium multiflorum, post-emergence, 240 h, postemergence, approx. 10 d; for pest or weed control at 125 g/ha: 125 g ai/ha, visual injury on 0 to 100 scale (0 no effect, 100 complete control), read-out: Ryegrass, Italian plant response rating; for pest or weed control at 500 g/ha: 500 g ai/ha, visual injury, 0 to 100 scale (0 no effect, 100 complete control), read-out: Plant response rating, Ryegrass, Italian
Procedure, shortened: as §1

[14] = tested on: Kochia (Kochia scoparia); assay: Test A postemergence; settings: Bassia scoparia, post-emergence, 240 h, postemergence, approx. 10 d; for pest or weed control at 125 g/ha: 125 g ai/ha, visual injury on 0 to 100 scale (0 no effect, 100 complete control), read-out: Kochia plant response rating; for pest or weed control at 500 g/ha: 500 g ai/ha, visual injury, 0 to 100 scale (0 no effect, 100 complete control), read-out: Plant response rating, Kochia
Procedure, shortened: as §1

[15] = tested on: ragweed (common ragweed, Ambrosia elatior); assay: Test A postemergence; settings: Ambrosia artemisiifolia, post-emergence, 240 h, postemergence, approx. 10 d; for pest or weed control at 125 g/ha: 125 g ai/ha, visual injury on 0 to 100 scale (0 no effect, 100 complete control), read-out: Ragweed plant response rating; for pest or weed control at 500 g/ha: 500 g ai/ha, visual injury, 0 to 100 scale (0 no effect, 100 complete control), read-out: Plant response rating, Ragweed
Procedure, shortened: as §1

Compound | pest or weed control at 125 g/ha [1] [%] | pest or weed control at 500 g/ha [1] [%] | pest or weed control at 125 g/ha [2] [%] | pest or weed control at 500 g/ha [2] [%] | pest or weed control at 125 g/ha [3] [%] | pest or weed control at 500 g/ha [3] [%] | pest or weed control at 125 g/ha [4] [%] | pest or weed control at 500 g/ha [4] [%] | pest or weed control at 125 g/ha [5] [%] | pest or weed control at 500 g/ha [5] [%] | pest or weed control at 125 g/ha [6] [%] | pest or weed control at 250 g/ha [7] [%] | pest or weed control at 250 g/ha [8] [%] | pest or weed control at 250 g/ha [9] [%] | pest or weed control at 250 g/ha [10] [%] | plant injury at 125 g/ha [11] [%] | pest or weed control at 125 g/ha [12] [%] | pest or weed control at 500 g/ha [12] [%] | pest or weed control at 125 g/ha [13] [%] | pest or weed control at 125 g/ha [14] [%] | other results
CC(C)COc1cccc([C@H]2CN(C)C(=O)[C@@H]2C(=O)Nc2ccccc2F)c1 [Compound 1028] | 90 | 90 | 0 | 0 | 30 | 30 | 90 | 90 | 0 | 60 | 0 | 0 | 10 | 20 | 80 | 0 | 40 | 50 | 0 | 0 | plant injury at 500 g/ha [11]: 40%; pest or weed control at 500 g/ha [13]: 40%; pest or weed control at 500 g/ha [14]: 0%; pest or weed control at 125 g/ha [15]: 0%; pest or weed control at 500 g/ha [15]: 0%
CC(C)COc1cccc([C@H]2CN(C)C(=O)[C@@H]2C(=O)Nc2cccc(F)c2F)c1 [Compound 1029] | 90 | 90 | 0 | 0 | 70 | 90 | 90 | 90 | 0 | 90 | 0 | 0 | 0 | 0 | 85 | 30 | 20 | 40 | 0 | 0 | pest or weed control at 500 g/ha [6]: 0%; plant injury at 500 g/ha [11]: 60%; pest or weed control at 500 g/ha [13]: 40%; pest or weed control at 500 g/ha [14]: 0%; pest or weed control at 125 g/ha [15]: 0%; pest or weed control at 500 g/ha [15]: 0%
Cc1ccc([C@H]2CNC(=O)[C@@H]2C(=O)Nc2ccccc2S(C)(=O)=O)cc1C [Compound 1037] | 20 | 80 | 0 | 20 | 50 | 70 | 80 | 90 | 40 | 90 | 0 | 0 | 0 | 25 | 100 | 0 | 40 | 60 | 0 | 0 | pest or weed control at 500 g/ha [6]: 60%; plant injury at 500 g/ha [11]: 30%; pest or weed control at 500 g/ha [13]: 50%; pest or weed control at 500 g/ha [14]: 20%; pest or weed control at 125 g/ha [15]: 20%; pest or weed control at 500 g/ha [15]: 30%
Cc1ccc([C@H]2CN(C)C(=O)[C@@H]2C(=O)Nc2cccc(F)c2F)cc1C [Compound 1039] | 90 | 100 | 20 | 40 | 60 | 80 | 90 | 100 | 80 | 100 | 10 | 0 | 0 | 65 | 90 | 50 | 40 | 60 | 50 | 40 | pest or weed control at 500 g/ha [6]: 90%; pest or weed control at 500 g/ha [14]: 60%; pest or weed control at 125 g/ha [15]: 10%
Cc1cc([C@H]2CNC(=O)[C@@H]2C(=O)Nc2ccc(F)cc2F)ccc1C(F)(F)F [Compound 1043] | 70 | 90 | 0 | 20 | 20 | 50 | 80 | 90 | 60 | 70 | 0 | 0 | 0 | 0 | 90 | 0 | 20 | 40 | 0 | 0 | pest or weed control at 500 g/ha [6]: 50%; pest or weed control at 500 g/ha [14]: 40%; pest or weed control at 125 g/ha [15]: 0%

Source: US12077503B2, “Substituted cyclic amides and their use as herbicides” (FMC CORPORATION, priority 2015, dated 2024)
